For orientation: Ki means the equilibrium dissociation constant of an inhibitor or competing ligand from its target.

We go through two compounds from US20250100997A1, “PYRIDAZINYL AMINO DERIVATIVES AS ALK5 INHIBITORS” (CHIESI FARMACEUTICI S.P.A., priority 2022, published 2025).

In the test the target is T1, human ALK5 (recombinant TGF β1 N-term GST-tagged, 80-end) (Homo sapiens, UniProt P36897).
T1 construct: human ALK5 (recombinant TGF β1 N-term GST-tagged, 80-end); GST (N); purchased
T1 sequence (P36897 80-503 limits assumed): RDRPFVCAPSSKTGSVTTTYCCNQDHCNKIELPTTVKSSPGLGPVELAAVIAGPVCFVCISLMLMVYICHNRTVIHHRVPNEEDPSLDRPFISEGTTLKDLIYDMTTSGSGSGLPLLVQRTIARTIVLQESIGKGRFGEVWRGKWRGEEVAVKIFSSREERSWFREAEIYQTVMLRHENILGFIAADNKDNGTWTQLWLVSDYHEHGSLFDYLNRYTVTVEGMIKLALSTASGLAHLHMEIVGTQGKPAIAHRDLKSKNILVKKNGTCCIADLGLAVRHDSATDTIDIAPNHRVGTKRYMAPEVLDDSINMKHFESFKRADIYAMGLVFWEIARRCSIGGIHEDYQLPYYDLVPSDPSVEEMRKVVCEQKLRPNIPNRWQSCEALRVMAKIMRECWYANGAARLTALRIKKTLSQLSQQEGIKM
Nature of the test: ADP-GLO kinase assay, biochemical ALK5 assay. The note with it: pIC50 converted to pKi using the Cheng-Prusoff equation, ATP at Km, or high ATP (30-fold Km) for very potent compounds, 25° C. Here is the method:
The enzymatic activity of compounds of the present invention was monitored measuring the formation of ADP using the ADP-GLO Kinases assay. Following the incubation of the purified enzyme, a substrate and ATP, the produced ADP was converted into ATP, which in turn was converted into light by Ultra-Glo Luciferase. The luminescent signal positively correlated with ADP amount and kinase activity. Briefly, the kinase reaction was performed by incubating 2.6 nM of the purified, commercially available human ALK5 (recombinant TGF β1 N-term GST-tagged, 80-end), a final concentration of TGFβ1 peptide 94.5 μM (Promega, T36-58) and ultra-pure ATP (Promega V915B). The ATP concentration was set at the Km value (concentration of substrate which permits the enzyme to achieve half maximal velocity (Vmax)) of ALK5 (0.5 μM). Compound and ALK5 kinase were mixed and incubated for 15 mins. Reactions were initiated by addition of ATP at a final concentration in the assay of […]. After an incubation of 120 min, the reaction was stopped, and ADP production detected with ADP-Glo kit according to manufacturer's indications. To overcome the assay wall limit for very potent compounds the assay protocol was changed by using a high ATP concentration (30-fold Km). Compounds and ALK5 kinase were mixed for 15 min and the reaction initiated by addition of TGFβ1 peptide and ATP at a final concentration in the assay of 15 μM. After an incubation of 60 min, the kinase reaction was stopped, and ADP production detected with ADP-Glo kit according to manufacturer's indications.
All reaction and incubation steps were performed at 25° C. and the assays were performed in 384-well format and validated using a selection of reference compounds tested in 11-point concentration-response curve.
Results were expressed as pIC50 (negative logarithm of IC50) and subsequently converted to pKi (negative logarithm of […]) using the Cheng-Prusoff equation. The higher the value of pKi, the greater the inhibition of ALK5 activity.

In the case of `COC(=O)N1CC=C(c2nnc(-c3cc(Cl)ccc3F)cc2Nc2ccnc(NC(=O)CCN3CCN(C)CC3)c2)CC1` [Example 5, methyl 4-[6-(5-chloro-2-fluorophenyl)-4-({2-[3-(4-methylpiperazin-1-yl)propanamido]pyridin-4-yl}amino)pyridazin-3-yl]-1,2,3,6-tetrahydropyridine-1-carboxylate], the Ki was 1 to 3.16 nM.

For the compound `CN1CC=C(c2nnc(-c3cc(Cl)ccc3F)cc2Nc2ccnc(NC(=O)CCN3CCN(C)CC3)c2)CC1` [Example 6, N-(4-{[6-(5-chloro-2-fluorophenyl)-3-(1-methyl-1,2,3,6-tetrahydropyridin-4-yl)pyridazin-4-yl]amino}pyridin-2-yl)-3-(4-methylpiperazin-1-yl)propanamide], the Ki was 1 to 3.16 nM.
